Test results reported in patent publication US5344959A, “Tetrahydronaphthyl and cyclopropyl substituted 1,3-butadienes having retinoid-like activity” (Allergan, Inc., priority 1993, dated 1994).

System: ornithine decarboxylase (ODC)
Experiment: not given
Settings: general statement, known; cited from earlier work

SMILES | induction of ODC activity
CCCCCCCCCCCCCC(=O)O[C@@H]1[C@@H](C)[C@@]2(O)[C@@H](C=C(CO)C[C@]3(O)C(=O)C(C)=C[C@@H]23)[C@@H]2C(C)(C)[C@]12OC(C)=O [12-0-tetradecanoylphorbol-13-acetate] | induces

Same assay, conditions: general statement, literature; cited from earlier work

SMILES | inhibition of induction of ODC activity by TPA
CC1=C(/C=C/C(C)=C/C=C/C(C)=C/C(=O)O)C(C)(C)CCC1 [Retinoic acid] | inhibits

System: ornithine decarboxylase (ODC)
Experiment: inhibition of TPA induction of ornithine decarboxylase (ODC)
Format: in vivo
Settings: inhibition of TPA-induced ODC activity; Table 1
From the text: The retinoid-like activity of these compounds is confirmed through the classic measure of retinoic acid activity involving the effects of retinoic acid on ornithine decarboxylase. The original work on the correlation-between retinoic acid and decrease in cell proliferation was done by Verma & Boutwell, Cancer Research, 1977, 37,2196-2201. That reference discloses that ornithine decarboxylase (ODC) activity increased precedent to polyamine biosynthesis. It has been established elsewhere that increases in polyamine synthesis can be correlated or associated with cellular proliferation. Thus, if ODC activity could be inhibited, cell hyperproliferation could be modulated. Although all causes for ODC activity increases are unknown, it is known that 12-0-tetradecanoylphorbol-13-acetate (TPA) induces ODC activity. Retinoic acid inhibits this induction of ODC activity by TPA.

SMILES | IC80
CCOC(=O)[C@@H]1C[C@@H]1/C=C/C=C(\C)c1ccc2c(c1)C(C)(C)CCC2(C)C (relative stereo) [Compound 1, Ethyl cis-2-[4-methyl-4-(5,5,8,8,-tetramethyl-5,6,7,8-tetrahydro-2-naphthyl)-(E),(E) 1-3-butadienyl]-1-cyclopropane carboxylate] | 8.3 nM
CCOC(=O)[C@@H]1C[C@H]1/C=C/C=C(\C)c1ccc2c(c1)C(C)(C)CCC2(C)C (relative stereo) [Compound 2, Ethyl trans 2-[4-methyl-4(5,6,7,8-tetrahyro-5,5,8,8-tetramethyl-2-naphthyl)E,E 1-3 butadienyl] 1-cyclopropane carboxylate] | 2.1 nM
C/C(=C\C=C\[C@H]1C[C@H]1C(=O)O)c1cc2c(cc1C)C(C)(C)CCC2(C)C (relative stereo) [Compound 6, Cis-2-[4-methyl-4-(3,5,5,8,8,-pentamethyl-5,6,7,8-tetrahydro-2-naphthyl)-(E),(E) 1-3-butadienyl]-1-cyclopropane carboxylic acid] | 638 nM
CCOC(=O)[C@@H]1C[C@@H]1/C=C/C=C(\C)c1cc2c(cc1C)C(C)(C)CCC2(C)C (relative stereo) [Compound 5, Ethyl cis-2-[4-methyl-4-(3,5,5,8,8,-pentamethyl-5,6,7,8-tetrahydro-2-naphthyl)-(E),(E) 1-3-butadienyl]-1-cyclopropane carboxylate] | > 300 nM
CCOC(=O)[C@@H]1C[C@H]1/C=C/C=C(\C)c1cc2c(cc1C)C(C)(C)CCC2(C)C (relative stereo) [Compound 7, Ethyl trans-2-[4-methyl-4-(3,5,5,8,8,-pentamethyl-5,6,7,8-tetrahydro-2-naphthyl)-(E),(E) 1-3-butadienyl]-1-cyclopropane carboxylate] | 250 nM
C/C(=C\C=C\[C@@H]1C[C@H]1C(=O)O)c1ccc2c(c1)C(C)(C)CCC2(C)C (relative stereo) [Compound 3, Trans-2-[4-methyl-4-(5,5,8,8,-tetramethyl-5,6,7,8-tetrahydro-2-naphthyl)-(E),(E) 1-3-butadienyl]-1-cyclopropane carboxylic acid] | 2.6 nM
C/C(=C\C=C\[C@H]1C[C@H]1C(=O)O)c1ccc2c(c1)C(C)(C)CCC2(C)C (relative stereo) [Compound 4, Cis-2-[4-methyl-4-(5,5,8,8,-tetramethyl-5,6,7,8-tetrahydro-2-naphthyl)-(E),(E) 1-3-butadienyl]-1-cyclopropane carboxylic acid] | 35 nM
